# According to ChEMBL document CHEMBL4765457, “Targeting dual tolerant regions of binding pocket: Discovery of novel morpholine-substituted diarylpyrimidines as potent HIV-1 NNRTIs with significantly improved water solubility” (Eur J Med Chem, 2020):
# pEC50: −log10 of the molar value.
# Columns and labels:
# [1] = system: Human immunodeficiency virus 1; experiment: Antiviral activity against HIV1 RES056 infected in human MT4 cells assessed as inhibition of virus-induced cytopathic effect incubated for 5 days by MTT assay; assay type: functional, organism-based; conditions: Human immunodeficiency virus 1, RES056, MT4, 120 h
# [2] = Selectivity index, ratio of CC50 for human MT4 cells to EC50 for antiviral activity against HIV1 RES056 infected in human MT4 cells; assay type: toxicity, cell-based; conditions: read-out: Ratio CC50/EC50
# [3] = Selectivity index, ratio of CC50 for human MT4 cells to EC50 for antiviral activity against HIV1 3B infected in human MT4 cells; assay type: toxicity, cell-based; conditions: read-out: Ratio CC50/EC50
# [4] = Cytotoxicity against human MT4 cells assessed as reduction in cell viability incubated for 5 days by MTT assay; assay type: cell-based; conditions: time 5 day
# [5] = system: Human immunodeficiency virus 1; experiment: Antiviral activity against HIV1 3B infected in human MT4 cells assessed as virus-induced cytopathic effect incubated for 5 days by MTT assay; assay type: functional, organism-based; conditions: Human immunodeficiency virus 1, 3B, MT4, 120 h
# [6] = system: Human immunodeficiency virus 1; experiment: Antiviral activity against HIV1 harboring RT F227L/V106Amutant infected in human MT4 cells assessed as inhibition of virus-induced cytopathic effect incubated for 5 days by MTT assay; assay type: functional, organism-based; conditions: Human immunodeficiency virus 1, MT4, 120 h
# [7] = system: Human immunodeficiency virus 1; experiment: Antiviral activity against HIV1 harboring RT Y188L mutant infected in human MT4 cells assessed as inhibition of virus-induced cytopathic effect incubated for 5 days by MTT assay; assay type: functional, organism-based; conditions: Human immunodeficiency virus 1, MT4, 120 h
# [8] = system: Human immunodeficiency virus 1; experiment: Antiviral activity against HIV1 harboring RT L100I mutant infected in human MT4 cells assessed as inhibition of virus-induced cytopathic effect incubated for 5 days by MTT assay; assay type: functional, organism-based; conditions: Human immunodeficiency virus 1, MT4, 120 h
# [9] = system: Human immunodeficiency virus 1; experiment: Antiviral activity against HIV1 harboring RT K103N mutant infected in human MT4 cells assessed as inhibition of virus-induced cytopathic effect incubated for 5 days by MTT assay; assay type: functional, organism-based; conditions: Human immunodeficiency virus 1, MT4, 120 h
# [10] = system: Human immunodeficiency virus 1; experiment: Antiviral activity against HIV1 harboring RT Y181C mutant infected in human MT4 cells assessed as inhibition of virus-induced cytopathic effect incubated for 5 days by MTT assay; assay type: functional, organism-based; conditions: Human immunodeficiency virus 1, MT4, 120 h
# [11] = Resistance index, ratio of EC50 for antiviral activity against HIV1 expressing RT F227L/V106A mutant infected in human MT4 cells to EC50 for antiviral activity against HIV1 3B infected in human MT4 cells; assay type: functional
# [12] = Resistance index, ratio of EC50 for antiviral activity against HIV1 expressing RT K103N mutant infected in human MT4 cells to EC50 for antiviral activity against HIV1 3B infected in human MT4 cells; assay type: functional
# [13] = Resistance index, ratio of EC50 for antiviral activity against HIV1 expressing RT L100I mutant infected in human MT4 cells to EC50 for antiviral activity against HIV1 3B infected in human MT4 cells; assay type: functional
# [14] = Resistance index, ratio of EC50 for antiviral activity against HIV1 expressing RT Y181C mutant infected in human MT4 cells to EC50 for antiviral activity against HIV1 3B infected in human MT4 cells; assay type: functional
# [15] = Resistance index, ratio of EC50 for antiviral activity against HIV1 expressing RT E138K mutant infected in human MT4 cells to EC50 for antiviral activity against HIV1 3B infected in human MT4 cells; assay type: functional
# [16] = Resistance index, ratio of EC50 for antiviral activity against HIV1 expressing RT Y188L mutant infected in human MT4 cells to EC50 for antiviral activity against HIV1 3B infected in human MT4 cells; assay type: functional
# [17] = system: Human immunodeficiency virus 1; experiment: Antiviral activity against HIV1 harboring RT E138K mutant infected in human MT4 cells assessed as inhibition of virus-induced cytopathic effect incubated for 5 days by MTT assay; assay type: functional, organism-based; conditions: Human immunodeficiency virus 1, MT4, 120 h
smiles,measurement,setting,value
Cc1cc(C#N)cc(C)c1Oc1nc(NC2CCN(CC(=O)N3CCOCC3)CC2)nc2ccoc12,pEC50,[1],< 3.90
same,selectivity ratio,[2],< 1
same,selectivity ratio,[3],383
same,CC50 at 120 h,[4],125 µM
same,pEC50,[5],6.49
Cc1cc(C#N)cc(C)c1Oc1nc(NC2CCN(CC(=O)N3CCOCC3)CC2)nc2c1CCC2,pEC50,[6],4.57
same,pEC50,[7],5.19
same,pEC50,[1],< 4.13
same,pEC50,[8],4.80
same,selectivity ratio,[2],< 1
same,pEC50,[9],5.60
same,selectivity ratio,[3],696
same,pEC50,[10],4.97
same,Ratio EC50,[11],256
same,CC50 at 120 h,[4],73.5 µM
same,Ratio EC50,[12],24.1
same,Ratio EC50,[13],150.4
same,Ratio EC50,[14],100.8
same,pEC50,[5],6.97
same,Ratio EC50,[15],10.6
same,Ratio EC50,[16],61.4
same,pEC50,[17],5.95
Cc1cc(C#N)cc(C)c1Oc1nc(NC2CCN(CCN3CCOCC3)CC2)nc2c1CSC2,pEC50,[6],4.93
same,pEC50,[7],4.86
same,pEC50,[1],< 4.55
same,pEC50,[8],4.78
same,selectivity ratio,[2],< 1
same,pEC50,[9],5.71
same,selectivity ratio,[3],164
same,pEC50,[10],4.88
same,Ratio EC50,[11],68.4
same,CC50 at 120 h,[4],28.5 µM
same,Ratio EC50,[12],11.3
same,Ratio EC50,[13],95.6
same,Ratio EC50,[14],76.2
same,pEC50,[5],6.76
same,Ratio EC50,[15],6.8
same,Ratio EC50,[16],79.7
same,pEC50,[17],5.93
Cc1cc(C#N)cc(C)c1Oc1nc(NC2CCN(CC(=O)N3CCOCC3)CC2)nc2ccsc12,pEC50,[6],≤ 4.75
same,pEC50,[7],5.31
same,pEC50,[1],< 4.38
same,pEC50,[8],5.29
same,selectivity ratio,[2],< 1
same,pEC50,[9],5.86
same,selectivity ratio,[3],416
same,pEC50,[10],5.28
same,Ratio EC50,[11],>=178.1
same,CC50 at 120 h,[4],41.9 µM
same,Ratio EC50,[12],13.7
same,Ratio EC50,[13],51.4
same,Ratio EC50,[14],52.4
same,pEC50,[5],7.00
same,Ratio EC50,[15],1.7
same,Ratio EC50,[16],48.8
same,pEC50,[17],6.77
Cc1cc(C#N)cc(C)c1Oc1nc(NC2CCN(CCN3CCOCC3)CC2)nc2c1CCC2,pEC50,[1],< 4.31
same,selectivity ratio,[2],< 1
same,selectivity ratio,[3],261
same,CC50 at 120 h,[4],49.1 µM
same,pEC50,[5],6.73
Cc1cc(C#N)cc(C)c1Oc1ccnc(NC2CCN(CC(=O)N3CCOCC3)CC2)n1,pEC50,[1],< 3.84
same,selectivity ratio,[2],< 1
same,selectivity ratio,[3],1020
same,CC50 at 120 h,[4],143 µM
same,pEC50,[5],6.85
Cc1cc(C#N)cc(C)c1Oc1nc(NC2CCN(CCN3CCOCC3)CC2)nc2scnc12,pEC50,[1],< 4.05
same,selectivity ratio,[2],< 1
same,selectivity ratio,[3],305
same,CC50 at 120 h,[4],88.6 µM
same,pEC50,[5],6.54
COc1cc2nc(NC3CCN(CCN4CCOCC4)CC3)nc(Oc3c(C)cc(C#N)cc3C)c2cc1OC,pEC50,[1],< 3.92
same,selectivity ratio,[2],< 1
same,selectivity ratio,[3],68
same,CC50 at 120 h,[4],121 µM
same,pEC50,[5],5.75
O=C1Nc2ccc(Cl)cc2[C@@](C#CC2CC2)(C(F)(F)F)O1 [EFAVIRENZ],pEC50,[8],7.40
same,pEC50,[9],7.03
same,pEC50,[10],8.22
same,CC50 at 120 h,[4],> 6.34 µM
Nc1ccn([C@@H]2CS[C@H](CO)O2)c(=O)n1 [LAMIVUDINE],pEC50,[6],5.56
same,pEC50,[7],5.47
same,pEC50,[1],5.08
same,pEC50,[8],5.79
same,selectivity ratio,[2],> 10
same,pEC50,[9],5.43
same,selectivity ratio,[3],> 17
same,pEC50,[10],5.32
same,Ratio EC50,[11],0.6
same,CC50 at 120 h,[4],> 87.2 µM
same,Ratio EC50,[12],0.7
same,Ratio EC50,[13],0.3
same,Ratio EC50,[14],1
same,pEC50,[5],5.30
same,Ratio EC50,[15],1.3
same,Ratio EC50,[16],0.7
same,pEC50,[17],5.18
Cc1ccnc2c1NC(=O)c1cccnc1N2C1CC1 [NEVIRAPINE],pEC50,[6],≤ 5.27
same,pEC50,[7],≤ 5.11
same,pEC50,[1],< 4.82
same,pEC50,[8],5.99
same,pEC50,[9],5.29
same,selectivity ratio,[3],> 92
same,pEC50,[10],5.17
same,Ratio EC50,[11],>=32.9
same,CC50 at 120 h,[4],> 15 µM
same,Ratio EC50,[12],31.1
same,Ratio EC50,[13],6.3
same,Ratio EC50,[14],40.7
same,Ratio EC50,[15],1.2
same,Ratio EC50,[16],>=46.9
same,pEC50,[17],6.72
Cc1cn([C@H]2C[C@H](N=[N+]=[N-])[C@@H](CO)O2)c(=O)[nH]c1=O [ZIDOVUDINE],pEC50,[6],8.05
same,pEC50,[7],8.05
same,pEC50,[1],7.62
same,pEC50,[8],8.22
same,selectivity ratio,[2],> 311
same,selectivity ratio,[3],> 397
same,pEC50,[10],7.80
same,Ratio EC50,[11],0.5
same,CC50 at 120 h,[4],> 7.48 µM
same,Ratio EC50,[12],1
same,Ratio EC50,[13],0.3
same,Ratio EC50,[14],0.9
same,pEC50,[5],7.72
same,Ratio EC50,[15],1.4
same,Ratio EC50,[16],0.5
same,pEC50,[17],7.57
